Data on 33 compounds can be found in patent US4450269A, “Mono-5-substituted-3-chloro-4H-1,2,6-thiadiazin-4-one antifungal agents” (FMC Corporation, priority 1980, dated 1984).

For the experiment, the system named is Sclerotinia fructicola. The experiment can be described thus: Mycelial growth test. The class given is cell-based. The settings on record: SF; for Percent Fungus Growth Inhibition: 72 hours; for inhibition at 5 ppm / inhibition at 10 ppm / inhibition at 20 ppm / inhibition at 40 ppm: Sclerotinia, 72 h, read-out: Percent Fungus Growth Inhibition. The text has this:
| SF = Sclerotinia fructicola

Structures can show the parent of a compound that is named as a salt.

Regarding “3-chloro-5-(bromophenoxy)-4H-1,2,6-thiadiazin-4-one [Compound 33]”, the “Percent Fungus Growth Inhibition” value (5 ppm) stood at 44%, the “Percent Fungus Growth Inhibition” value (10 ppm) is on record as 61%, the “Percent Fungus Growth Inhibition” value (20 ppm) turned out to be 94% and the “Percent Fungus Growth Inhibition” value (40 ppm) is listed as 100%.
For the compound “3-chloro-5-[methylaminocarbonyloxy)phenoxyl]-4H-1,2,6-thiadiazin-4-one [Compound 36]”, the “Percent Fungus Growth Inhibition” value (5 ppm) worked out at 38%, the “Percent Fungus Growth Inhibition” value (10 ppm) is listed as 62%, the “Percent Fungus Growth Inhibition” value (20 ppm) stood at 58% and the “Percent Fungus Growth Inhibition” value (40 ppm) came out at 100%.
For orientation: inhibition means the change of the read-out against control, counted positive when it falls. Take `O=c1c(Cl)nsnc1Oc1ccccc1` [Compound 2, 3-chloro-5-phenoxy-4H--1,2,6-thiadiazin-4-one]: under “5 ppm”, the inhibition at 5 ppm was found to be 52%. For the same compound, the inhibition at 10 ppm (10 ppm) was found to be 67%. Also, the inhibition at 20 ppm (20 ppm) came out at 100%. In addition, under “40 ppm”, the inhibition at 40 ppm was determined as 100%.
In the case of `Cc1ccc(Oc2nsnc(Cl)c2=O)cc1` [Compound 3, 3-chloro-5-(4-methylphenoxy)-4H--1,2,6-thiadiazin-4-one], the inhibition at 5 ppm (5 ppm) is 27%. The inhibition at 10 ppm (10 ppm) came to 67%. Under “20 ppm”, the inhibition at 20 ppm was found to be 94%. Further, the inhibition at 40 ppm (40 ppm) came out at 100%.
On to `CC(C)(C)c1ccc(Oc2nsnc(Cl)c2=O)cc1` [Compound 4, 3-chloro-5-(4-tert-butylphnoxy)-4H--1,2,6-thiadiazin-4-one], for which the inhibition at 5 ppm (5 ppm) stood at 0%. Besides, the inhibition at 10 ppm (10 ppm) was 0%. Moreover, under “20 ppm”, the inhibition at 20 ppm stood at 4%. Besides, the inhibition at 40 ppm (40 ppm) came out at 0%.
Consider `COc1ccc(Oc2nsnc(Cl)c2=O)cc1` [Compound 5, 3-chloro-5-(4-methoxyphenoxy)4H--1,2,6-thiadiazin-4-one], for which the inhibition at 5 ppm (5 ppm) turned out to be 27%. Besides, the inhibition at 10 ppm (10 ppm) is 42%. The inhibition at 20 ppm (20 ppm) was determined as 67%. Moreover, the inhibition at 40 ppm (40 ppm) was 73%.
Regarding `CCCCOc1ccc(Oc2nsnc(Cl)c2=O)cc1` [Compound 6, 3-chloro-5-(4-n-butoxyphenoxy)-4H--1,2,6-thiadiazin-4-one], where the note is “5 ppm”, the inhibition at 5 ppm came to 0%. For the same compound, the inhibition at 10 ppm (10 ppm) is 67%. In addition, under “20 ppm”, the inhibition at 20 ppm came to 0%. Under “40 ppm”, the inhibition at 40 ppm was 67%.
With `CCOC(=O)c1ccc(Oc2nsnc(Cl)c2=O)cc1` [Compound 7, 3-chloro-5-(4-ethoxycarbonylphenoxy)-4H--1,2,6-thiadiazin-4-one], the inhibition at 5 ppm (5 ppm) came to 54%. Also, the inhibition at 10 ppm (10 ppm) was 100%. For the same compound, the inhibition at 20 ppm (20 ppm) turned out to be 100%. The inhibition at 40 ppm (40 ppm) was determined as 100%.
With `CC(=O)Nc1ccc(Oc2nsnc(Cl)c2=O)cc1` [Compound 8, 5-(4-acetylaminophenoxy)-3-chloro-4H--1,2,6-thiadiazin-4-one], the inhibition at 5 ppm (5 ppm) is 0%. In addition, the inhibition at 10 ppm (10 ppm) came out at 0%. The inhibition at 20 ppm (20 ppm) came to 51%. Besides, the inhibition at 40 ppm (40 ppm) was 60%.
In the case of `O=c1c(Cl)nsnc1Oc1ccc([N+](=O)[O-])cc1` [Compound 9, 3-chloro-5-(4-nitrophenoxy)-4H--1,2,6-thiadiazin-4-one], for the setting “5 ppm”, the inhibition at 5 ppm was found to be 58%. Where the note is “10 ppm”, the inhibition at 10 ppm stood at 76%. For the same compound, the inhibition at 20 ppm (20 ppm) is 100%. Also, under “40 ppm”, the inhibition at 40 ppm stood at 100%.
Take `N#Cc1ccc(Oc2nsnc(Cl)c2=O)cc1` [Compound 10, 3-chloro-5-(4-cyanophenoxy)-4H--1,2,6-thiadiazin-4-one]: where the note is “10 ppm”, the inhibition at 10 ppm worked out at 33%. For the same compound, the inhibition at 20 ppm (20 ppm) was found to be 100%. Further, where the note is “40 ppm”, the inhibition at 40 ppm stood at 100%.
Regarding `O=c1c(Cl)nsnc1Oc1ccc(F)cc1` [Compound 11, 3-chloro-5-(4-fluorophenoxy)-4H--1,2,6-thiadiazin-4-one], the inhibition at 5 ppm (5 ppm) was found to be 100%. The inhibition at 10 ppm (10 ppm) was determined as 100%. Besides, the inhibition at 20 ppm (20 ppm) was 100%. The inhibition at 40 ppm (40 ppm) is 100%.
For the compound `O=c1c(Cl)nsnc1Oc1ccc(Cl)cc1` [Compound 12, 3-chloro-5-(4-chlorophenoxy)-4H--1,2,6-thiadiazin-4-one], for the setting “5 ppm”, the inhibition at 5 ppm is 64%. Further, under “10 ppm”, the inhibition at 10 ppm was found to be 82%. Also, the inhibition at 20 ppm (20 ppm) stood at 100%. Further, under “40 ppm”, the inhibition at 40 ppm came out at 100%.
Turning to `O=c1c(Cl)nsnc1Oc1cccc(Cl)c1` [Compound 13, 3-chloro-5-(3-chlorophenoxy)-4H--1,2,6-thiadiazin-4-one], the inhibition at 5 ppm (5 ppm) is 51%. For the same compound, the inhibition at 10 ppm (10 ppm) stood at 67%. Moreover, the inhibition at 20 ppm (20 ppm) was found to be 100%. For the same compound, the inhibition at 40 ppm (40 ppm) turned out to be 100%.
For `O=c1c(Cl)nsnc1Oc1ccccc1Cl` [Compound 14, 3-chloro-5-(2-chlorophenoxy)-4H--1,2,6-thiadiazin-4-one], the inhibition at 5 ppm (5 ppm) came out at 47%. Besides, the inhibition at 10 ppm (10 ppm) came to 64%. Besides, the inhibition at 20 ppm (20 ppm) was found to be 87%. For the same compound, the inhibition at 40 ppm (40 ppm) was 100%.
Consider `O=c1c(Cl)nsnc1Oc1ccc(Br)cc1` [Compound 15, 3-chloro-5-(4-bromophenoxy)-4H--1,2,6-thiadiazin-4-one], for which the inhibition at 5 ppm (5 ppm) is 92%. Further, the inhibition at 10 ppm (10 ppm) was determined as 83%. The inhibition at 20 ppm (20 ppm) was determined as 83%. Also, the inhibition at 40 ppm (40 ppm) is 88%.
On to `O=c1c(Cl)nsnc1Oc1ccc(Cl)c(Cl)c1` [Compound 16, 3-chloro-5-(3,4-dichlorophenoxy)-4H--1,2,6-thiadiazin-4-one], for which the inhibition at 5 ppm (5 ppm) was 64%. Moreover, for the setting “10 ppm”, the inhibition at 10 ppm worked out at 67%. Besides, the inhibition at 20 ppm (20 ppm) stood at 67%. In addition, under “40 ppm”, the inhibition at 40 ppm was determined as 67%.
`O=c1c(Cl)nsnc1Oc1ccc(Cl)cc1Cl` [Compound 17, 3-chloro-5-(2,4-dichlorophenoxy)-4H--1,2,6-thiadiazin-4-one]: under “5 ppm”, the inhibition at 5 ppm is 62%. Besides, the inhibition at 10 ppm (10 ppm) amounted to 76%. Further, the inhibition at 20 ppm (20 ppm) was 96%. Also, the inhibition at 40 ppm (40 ppm) was 100%.
On the same counts, the results for `O=c1c(Cl)nsnc1Oc1c(Cl)cccc1Cl` [Compound 18, 3-chloro-5-(2,6-dichlorophenoxy)-4H--1,2,6-thiadiazin-4-one] are 51%, 64%, 89% and 100%.
Turning to `O=c1c(Cl)nsnc1Oc1cccc(Cl)c1Cl` [Compound 19, 3-chloro-5-(2,3-dichlorophenoxy)-4H--1,2,6-thiadiazin-4-one], for the setting “5 ppm”, the inhibition at 5 ppm turned out to be 64%. Further, the inhibition at 10 ppm (10 ppm) is 76%. Also, where the note is “20 ppm”, the inhibition at 20 ppm was 100%. For the same compound, the inhibition at 40 ppm (40 ppm) was found to be 100%.
With `O=c1c(Cl)nsnc1Oc1cc(Cl)cc(Cl)c1` [Compound 20, 3-chloro-5-(3,5-dichlorophenoxy)-4H--1,2,6-thiadiazin-4-one], under “5 ppm”, the inhibition at 5 ppm was determined as 60%. Moreover, the inhibition at 10 ppm (10 ppm) worked out at 73%. Further, where the note is “20 ppm”, the inhibition at 20 ppm worked out at 84%. Besides, the inhibition at 40 ppm (40 ppm) was found to be 87%.
As to `Cc1cccc(Oc2nsnc(Cl)c2=O)c1` [Compound 21, 3-chloro-5-(3-methylphenoxy)-4H--1,2,6-thiadiazin-4-one], the inhibition at 5 ppm (5 ppm) came to 100%. Besides, the inhibition at 10 ppm (10 ppm) is 100%. Besides, the inhibition at 20 ppm (20 ppm) was 100%. Under “40 ppm”, the inhibition at 40 ppm came out at 100%.
Regarding `Cc1ccccc1Oc1nsnc(Cl)c1=O` [Compound 22, 3-chloro-5-(2-methylphenoxy)-4H--1,2,6-thiadiazin-4-one], where the note is “5 ppm”, the inhibition at 5 ppm worked out at 24%. The inhibition at 10 ppm (10 ppm) is 100%. For the setting “20 ppm”, the inhibition at 20 ppm was found to be 100%. For the same compound, for the setting “40 ppm”, the inhibition at 40 ppm was 100%.
`Cc1ccc(Oc2nsnc(Cl)c2=O)c(C)c1` [Compound 23, 3-chloro-5-(2,4-dimethylphenoxy)-4H--1,2,6-thiadiazin-4-one]: the inhibition at 5 ppm (5 ppm) is 82%. Further, the inhibition at 10 ppm (10 ppm) was found to be 100%. The inhibition at 20 ppm (20 ppm) was 100%. Moreover, the inhibition at 40 ppm (40 ppm) was found to be 100%.
With `Cc1cccc(C)c1Oc1nsnc(Cl)c1=O` [Compound 24, 3-chloro-5-(2,6-dimethylphenoxy)-4H--1,2,6-thiadiazin-4-one], for the setting “5 ppm”, the inhibition at 5 ppm was found to be 100%. Also, the inhibition at 10 ppm (10 ppm) is 100%. For the setting “20 ppm”, the inhibition at 20 ppm is 100%. In addition, where the note is “40 ppm”, the inhibition at 40 ppm was 100%.
Take `Cc1cc(C)cc(Oc2nsnc(Cl)c2=O)c1` [Compound 25, 3-chloro-5-(3,5-dimethylphenoxy)-4H--1,2,6-thiadiazin-4-one]: under “5 ppm”, the inhibition at 5 ppm came out at 82%. The inhibition at 10 ppm (10 ppm) was 100%. In addition, the inhibition at 20 ppm (20 ppm) came out at 100%. For the setting “40 ppm”, the inhibition at 40 ppm amounted to 100%.
As to `Nc1ccc(Oc2nsnc(Cl)c2=O)cc1` [Compound 26, 5-(4-aminophenoxy)-3-chloro-4H--1,2,6-thiadiazin-4-one], the “Percent Fungus Growth Inhibition” value stood at 17% (5 ppm) and 66% (10 ppm). Also, the inhibition at 40 ppm (40 ppm) was determined as 100%.
On to `Nc1ccc(Oc2nsnc(Cl)c2=O)cc1` [Compound 27, 5-(4-aminophenoxy)-3-chloro-4H--1,2,6-thiadiazine-4-one hydrochloride], for which the “Percent Fungus Growth Inhibition” value is, setting by setting: (5 ppm, hydrochloride) 0%; (10 ppm, hydrochloride) 21%; (20 ppm, hydrochloride) 28%; (40 ppm, hydrochloride) 86%.
As for `CNC(=O)Nc1ccc(Oc2nsnc(Cl)c2=O)cc1` [Compound 28, 3-chloro-5-[4-(3-methylureido)-phenoxy]-4H--1,2,6-thiadiazin-4-one], the inhibition at 5 ppm (5 ppm) worked out at 17%. Besides, for the setting “10 ppm”, the inhibition at 10 ppm stood at 28%. The inhibition at 20 ppm (20 ppm) came to 0%. Further, where the note is “40 ppm”, the inhibition at 40 ppm came out at 62%.
Consider `O=C(Nc1ccccc1)Nc1ccc(Oc2nsnc(Cl)c2=O)cc1` [Compound 29, 3-chloro-5-[4-(3-phenylureido)-phenoxy]-4H--1,2,6-thiadiazin-4-one], for which, where the note is “5 ppm”, the inhibition at 5 ppm was determined as 28%. For the same compound, the inhibition at 10 ppm (10 ppm) amounted to 31%. The inhibition at 20 ppm (20 ppm) came to 0%. Also, where the note is “40 ppm”, the inhibition at 40 ppm is 7%.
As to `O=c1c(Cl)nsnc1Oc1c(Cl)cc(Cl)cc1Cl` [Compound 30, 3-chloro-5-(2,4,6-trichlorophenoxy)-4H--1,2,6-thiadiazin-4-one], the inhibition at 5 ppm (5 ppm) is 50%. Moreover, the inhibition at 10 ppm (10 ppm) came to 87%. The inhibition at 20 ppm (20 ppm) is 97%. Moreover, the inhibition at 40 ppm (40 ppm) worked out at 97%.
As for `O=c1c(Cl)nsnc1Oc1c(Cl)c(Cl)c(Cl)c(Cl)c1Cl` [Compound 31, 3-chloro-5-(pentachlorophenoxy)-4H--1,2,6-thiadiazine-4-one], the inhibition at 5 ppm (5 ppm) was 55%. Further, where the note is “10 ppm”, the inhibition at 10 ppm is 52%. In addition, the inhibition at 20 ppm (20 ppm) came out at 72%. The inhibition at 40 ppm (40 ppm) was 52%.
Take `O=c1c(Cl)nsnc1Oc1cccc2ccccc12` [Compound 32, 3-chloro-5(1-naphthoxy)-4H-1,2,6-thiadiazin-4-one]: the inhibition at 5 ppm (5 ppm) stood at 74%. The inhibition at 10 ppm (10 ppm) was found to be 79%. Further, the inhibition at 20 ppm (20 ppm) is 76%. For the same compound, the inhibition at 40 ppm (40 ppm) was 100%.
